According to ChEMBL document CHEMBL6134821, “Design, synthesis, and biological evaluation of novel BTK-targeting proteolysis targeting chimeras (PROTACs) with enhanced pharmacokinetic properties” (Eur J Med Chem, 2025):
Calls of active or inactive are those of the source. The calls are words filed in the database; no cut-off is given here.

Assays:
[1] = target: T1, Protein cereblon/Tyrosine-protein kinase BTK (Homo sapiens, UniProt Q06187+Q96SW2); assay: PROTAC activity at CRBN/BTK in human JeKo-1 cells assessed as BTK degradation at 10 nM incubated for 24 hrs by Western blot analysis relative to control; format: cell-based
Target sequence in this assay (Q06187 2-659 limits assumed): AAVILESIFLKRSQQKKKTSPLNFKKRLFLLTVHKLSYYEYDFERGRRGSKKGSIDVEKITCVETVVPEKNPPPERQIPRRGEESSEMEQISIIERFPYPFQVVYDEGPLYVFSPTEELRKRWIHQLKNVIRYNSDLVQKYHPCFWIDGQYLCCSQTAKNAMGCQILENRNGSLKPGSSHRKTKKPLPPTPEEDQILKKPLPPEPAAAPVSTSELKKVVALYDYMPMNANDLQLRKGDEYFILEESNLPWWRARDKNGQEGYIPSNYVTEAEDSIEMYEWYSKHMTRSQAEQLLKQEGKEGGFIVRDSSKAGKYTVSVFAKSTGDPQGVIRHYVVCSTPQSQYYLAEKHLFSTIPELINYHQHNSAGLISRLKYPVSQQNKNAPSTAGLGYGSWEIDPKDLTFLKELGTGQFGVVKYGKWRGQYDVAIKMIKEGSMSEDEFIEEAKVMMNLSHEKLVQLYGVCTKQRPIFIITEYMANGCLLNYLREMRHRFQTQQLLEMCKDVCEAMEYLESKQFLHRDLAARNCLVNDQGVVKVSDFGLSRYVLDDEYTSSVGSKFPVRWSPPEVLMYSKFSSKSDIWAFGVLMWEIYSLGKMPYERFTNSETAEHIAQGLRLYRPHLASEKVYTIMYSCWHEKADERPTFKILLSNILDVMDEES
Target sequence in this assay (Q96SW2 whole entry partner): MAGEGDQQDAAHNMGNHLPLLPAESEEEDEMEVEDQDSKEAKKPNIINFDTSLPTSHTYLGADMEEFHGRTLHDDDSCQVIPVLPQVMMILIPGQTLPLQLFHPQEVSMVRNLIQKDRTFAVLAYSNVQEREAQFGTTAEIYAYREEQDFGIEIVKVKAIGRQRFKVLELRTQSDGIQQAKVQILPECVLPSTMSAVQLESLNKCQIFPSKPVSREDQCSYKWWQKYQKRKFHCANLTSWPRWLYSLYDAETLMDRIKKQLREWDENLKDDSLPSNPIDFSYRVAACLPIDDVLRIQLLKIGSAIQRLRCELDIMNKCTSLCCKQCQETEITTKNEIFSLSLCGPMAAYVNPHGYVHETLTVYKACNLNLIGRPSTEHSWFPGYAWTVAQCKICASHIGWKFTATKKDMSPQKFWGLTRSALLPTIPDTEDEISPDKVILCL

[2] = target: T1, Protein cereblon/Tyrosine-protein kinase BTK; assay: PROTAC activity at CRBN/BTK in human JeKo-1 cells assessed as BTK degradation at 100 nM by Western blot analysis; format: cell-based; conditions: time 1-24 hrs
Target sequence in this assay (Q06187 2-659 limits assumed): as the sequence (Q06187 2-659 limits assumed) above
Target sequence in this assay (Q96SW2 whole entry partner): as the sequence (Q96SW2 whole entry partner) above

[3] = target: T1, Protein cereblon/Tyrosine-protein kinase BTK; assay: PROTAC activity at CRBN/BTK in human JeKo-1 cells assessed as hook effect up to 1 uM incubated for 24 hrs by Western blot analysis; format: cell-based
Target sequence in this assay (Q06187 2-659 limits assumed): as the sequence (Q06187 2-659 limits assumed) above
Target sequence in this assay (Q96SW2 whole entry partner): as the sequence (Q96SW2 whole entry partner) above

[4] = Cmax in mouse at 30 mg/kg, ip measured after 0.083 hrs by LC-MS/MS analysis; format: ADME, organism-based; conditions: in vivo
[5] = target: T1, Protein cereblon/Tyrosine-protein kinase BTK; assay: PROTAC activity at CRBN/BTK in human JeKo-1 cells assessed as BTK degradation at 30 nM incubated for 24 hrs by Western blot analysis relative to control; format: cell-based
Target sequence in this assay (Q06187 2-659 limits assumed): as the sequence (Q06187 2-659 limits assumed) above
Target sequence in this assay (Q96SW2 whole entry partner): as the sequence (Q96SW2 whole entry partner) above

[6] = target: T1, Protein cereblon/Tyrosine-protein kinase BTK; assay: PROTAC activity at CRBN/BTK in human TMD8 cells assessed as BTK degradation measured after 24 hrs by Western blot analysis; format: cell-based; conditions: for Activity: dose 0.1-1000 nM
[7] = Toxicity in mouse at 2 mg/kg, iv measured for 0.083 to 24 hrs by LC-MS/MS analysis; format: organism-based; conditions: in vivo, time 0.083-24 hrs
[8] = Microsomal stability in human liver microsomes assessed as half life measured up to 60 mins in presence of NADPH by LC-MS/MS analysis; format: ADME, Microsome
[9] = system: JeKo-1; assay: Downregulation of CSK level in human JeKo-1 cells at 100 nM incubated for 4 hrs by Label-free MS proteomics analysis; format: functional, cell-based
[10] = AUC (0 to t) in mouse at 2 mg/kg, iv measured for 0.083 to 24 hrs by LC-MS/MS analysis; format: ADME, organism-based; conditions: in vivo, time 0.083-24 hrs
[11] = target: T1, Protein cereblon/Tyrosine-protein kinase BTK; assay: PROTAC activity at CRBN/BTK in human JeKo-1 cells assessed as BTK degradation at 100 nM incubated for 4 hrs by Label-free MS proteomics analysis; format: cell-based
Target sequence in this assay (Q06187 2-659 limits assumed): as the sequence (Q06187 2-659 limits assumed) above
Target sequence in this assay (Q96SW2 whole entry partner): as the sequence (Q96SW2 whole entry partner) above

[12] = target: T1, Protein cereblon/Tyrosine-protein kinase BTK; assay: PROTAC activity at CRBN/BTK in human JeKo-1 cells assessed as BTK degradation at 100 nM incubated for 24 hrs by Western blot analysis relative to control; format: cell-based
Target sequence in this assay (Q06187 2-659 limits assumed): as the sequence (Q06187 2-659 limits assumed) above
Target sequence in this assay (Q96SW2 whole entry partner): as the sequence (Q96SW2 whole entry partner) above

[13] = target: T1, Protein cereblon/Tyrosine-protein kinase BTK; assay: PROTAC activity at CRBN/BTK in human JeKo-1 cells assessed as BTK degradation at 10 nM incubated for 24 hrs in presence of MLN-4924 by Western blot analysis; format: cell-based
[14] = system: JeKo-1; assay: Downregulation of BLK level in human JeKo-1 cells at 100 nM incubated for 4 hrs by Label-free MS proteomics analysis; format: functional, cell-based
[15] = target: T1, Protein cereblon/Tyrosine-protein kinase BTK; assay: PROTAC activity at CRBN/BTK in human JeKo-1 cells assessed as BTK degradation at 10 nM incubated for 24 hrs in presence of bortezomib by Western blot analysis; format: cell-based
[16] = Drug concentration in plasma of mouse at 30 mg/kg, ip measured after 24 hrs by LC-MS/MS analysis; format: ADME, organism-based
[17] = Toxicity in mouse at 30 mg/kg, ip measured for 0.083 to 24 hrs by LC-MS/MS analysis; format: organism-based; conditions: in vivo, time 0.083-24 hrs
[18] = system: JeKo-1; assay: Effect on IKZF1 level in human JeKo-1 cells at 0.1 to 1000 nM incubated for 8 hrs by Western blot analysis; format: functional, cell-based; conditions: dose 0.1-1000 nM
[19] = Microsomal stability in human liver microsomes assessed as compound remaining measured up to 60 mins by LC-MS/MS analysis; format: ADME, Microsome; conditions: read-out: Stability
[20] = Microsomal stability in human liver microsomes assessed as compound remaining measured up to 60 mins in presence of NADPH by LC-MS/MS analysis; format: ADME, Microsome; conditions: read-out: Stability
[21] = Microsomal stability in human liver microsomes assessed as intrinsic clearance in microsomes measured up to 60 mins in presence of NADPH by LC-MS/MS analysis; format: ADME, Microsome; conditions: read-out: CLH
[22] = target: T1, Protein cereblon/Tyrosine-protein kinase BTK; assay: PROTAC activity at CRBN/BTK in human JeKo-1 cells assessed as BTK degradation incubated for 8 hrs by Western blot analysis; format: cell-based; conditions: dose 0.1-1000 nM
[23] = target: T1, Protein cereblon/Tyrosine-protein kinase BTK; assay: PROTAC activity at CRBN/BTK in human JeKo-1 cells assessed as BTK degradation at 100 nM measured after 4 hrs by Western blot analysis relative to control; format: cell-based
[24] = Cytotoxicity against human TMD8 cells harboring BTK C481S mutant assessed as inhibition of cell viability incubated for 5 days by CCK8 assay; format: functional, cell-based; conditions: TMD8, 120 h
[25] = target: T1, Protein cereblon/Tyrosine-protein kinase BTK; assay: PROTAC activity at CRBN/BTK in human JeKo-1 cells assessed as BTK degradation incubated for 24 hrs by Western blot analysis; format: cell-based; conditions: for Activity: dose 0.01-1000 nM
[26] = Microsomal stability in human liver microsomes assessed as intrinsic clearance in liver measured up to 60 mins in presence of NADPH by LC-MS/MS analysis; format: ADME, Microsome; conditions: read-out: CLH
[27] = Cytotoxicity against human TMD8 cells harboring wild-type BTK assessed as inhibition of cell viability incubated for 5 days by CCK8 assay; format: functional, cell-based; conditions: TMD8, 120 h
[28] = system: JeKo-1; assay: Effect on GSPT1 level in human JeKo-1 cells at 0.1 to 1000 nM incubated for 8 hrs by Western blot analysis; format: functional, cell-based; conditions: dose 0.1-1000 nM
[29] = target: Protein cereblon/Tyrosine-protein kinase BTK (Homo sapiens, UniProt Q06187+Q96SW2, C481S); assay: (§1) PROTAC activity at CRBN/BTK C481S mutant (unknown origin) expressed in human TMD8 cells assessed as BTK degradation measured after 24 hrs by Western blot analysis; format: cell-based
Protein cereblon/Tyrosine-protein kinase BTK (Homo sapiens, UniProt Q06187+Q96SW2, C481S), sequence (Q06187 whole entry, looked up, stated change not applied): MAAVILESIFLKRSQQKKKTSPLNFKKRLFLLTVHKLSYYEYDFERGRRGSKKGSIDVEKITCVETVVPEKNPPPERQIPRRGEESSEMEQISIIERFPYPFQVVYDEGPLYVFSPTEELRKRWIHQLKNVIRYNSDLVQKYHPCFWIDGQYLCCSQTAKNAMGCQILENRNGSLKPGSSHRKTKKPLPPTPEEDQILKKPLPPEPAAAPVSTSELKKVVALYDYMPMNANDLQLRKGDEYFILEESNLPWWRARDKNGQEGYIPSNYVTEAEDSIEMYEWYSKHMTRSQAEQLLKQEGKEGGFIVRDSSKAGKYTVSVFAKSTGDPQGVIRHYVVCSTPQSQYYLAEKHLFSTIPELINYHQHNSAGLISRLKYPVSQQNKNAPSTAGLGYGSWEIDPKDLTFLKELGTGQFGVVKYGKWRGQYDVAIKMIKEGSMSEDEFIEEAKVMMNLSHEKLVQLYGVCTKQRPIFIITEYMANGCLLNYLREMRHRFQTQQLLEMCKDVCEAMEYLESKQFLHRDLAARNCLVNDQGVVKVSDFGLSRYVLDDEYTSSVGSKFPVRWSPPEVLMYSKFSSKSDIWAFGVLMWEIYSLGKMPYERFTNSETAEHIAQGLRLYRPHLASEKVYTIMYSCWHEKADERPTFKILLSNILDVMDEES
Protein cereblon/Tyrosine-protein kinase BTK (Homo sapiens, UniProt Q06187+Q96SW2, C481S), sequence (Q96SW2 whole entry, looked up, stated change not applied): as the sequence (Q96SW2 whole entry partner) above

[30] = system: Protein cereblon/Tyrosine-protein kinase BTK (Homo sapiens), Q06187+Q96SW2 [C481S]; assay: as §1; format: cell-based; conditions: dose 0.1-1000 nM
[31] = system: JeKo-1; assay: Effect on IKZF3 level in human JeKo-1 cells at 0.1 to 1000 nM incubated for 8 hrs by Western blot analysis; format: functional, cell-based; conditions: dose 0.1-1000 nM

## O=C1CCC(c2ccc(N3CCC(CCN4CCC(CC(=O)N[C@H]5CC[C@H](Nc6ncnc7[nH]cc(C(=O)c8ccc(Oc9ccccc9)cc8)c67)C5)CC4)CC3)nc2)C(=O)N1 (stereo partly drawn)
[1]
  Activity: 89%
[2]
  Activity: Time-dependent-effect; Compound Exhibited Significant Reduction At 1 Hr
[3]
  Activity: inactive
[4]
  Cmax: 3.67 µM
[5]
  Activity: 94%
[6]
  DC50: 2.8 nM
  Activity: Dose-dependent-effect
[7]
  Activity: Non-toxic
[8]
  half-life: > 2.42 h
[9]
  Activity: Active
[10]
  AUC(0-t): 1730 ng·h/mL
[11]
  Activity: Active
[12]
  Activity: 91%
[13]
  Activity: inactive
[14]
  Activity: Active
[15]
  Activity: inactive
[16]
  concentration at 24 h: > 0.1 µM
[17]
  Activity: Non-toxic
[18]
  Activity: inactive
[19]
  remaining at 1 h: 79.3%
[20]
  remaining at 1 h: 106%
[21]
  microsomal CLint: < 9.6 µL/min/mg
[22]
  Activity: Dose-dependent-effect
[23]
  Activity: 100%
[24]
  IC50: 18.2 nM
[25]
  DC50: 2.9 nM
  Activity: Dose-dependent-effect
[26]
  CLint scaled: < 8.6 mL/min/kg
[27]
  IC50: 9.9 nM
[28]
  Activity: inactive
[29]
  DC50: 4.3 nM
[30]
  Activity: Dose-dependent-effect
[31]
  Activity: inactive

## O=C1CCC(c2ccc(N3CCC(CCN4CCC(CC(=O)N[C@H]5CC[C@H](Nc6ncnc7[nH]cc(C(=O)c8ccc(Oc9ccccc9)cc8)c67)C5)CC4)CC3)cc2)C(=O)N1 (stereo partly drawn)
[1]
  Activity: 78%
[2]
  Activity: Time-dependent-effect; Compound Exhibited Significant Reduction At 1 Hr
[3]
  Activity: inactive
[5]
  Activity: 81%
[6]
  DC50: 3.4 nM
  Activity: Dose-dependent-effect
[8]
  half-life: > 2.42 h
[12]
  Activity: 85%
[13]
  Activity: inactive
[15]
  Activity: inactive
[18]
  Activity: inactive
[19]
  remaining at 1 h: 99.8%
[20]
  remaining at 1 h: 92.2%
[21]
  microsomal CLint: < 9.6 µL/min/mg
[22]
  Activity: Dose-dependent-effect
[23]
  Activity: 100%
[24]
  IC50: 26.5 nM
[25]
  DC50: 1.7 nM
  Activity: Dose-dependent-effect
[26]
  CLint scaled: < 8.6 mL/min/kg
[27]
  IC50: 24.6 nM
[28]
  Activity: inactive
[29]
  DC50: 5.6 nM
[30]
  Activity: Dose-dependent-effect
[31]
  Activity: inactive
